Data from patent US20170304369A1, “METHODS OF DIFFERENTIATING STEM CELLS INTO LIVER CELL LINEAGES” (Agency for Science, Technology and Research, priority 2014, published 2017).

Experiments:
hepatic progenitors = test: Treatment of hepatic progenitors (days 13-18), hepatocyte-like cell, periportal versus perivenous gene expression; assay type: cell-based, human
hPSC-derived DE = test: Foregut specification: treatment of hPSC-derived DE (day 3), downstream gene expression by RT-qPCR; assay type: cell-based, human; details: for downstream LB gene expression (AFP, CEBPA, TBX3, HNF1B) / expression of MHG markers CDX2 and EVX1: 24 h during foregut specification; for HNF6, PROX1 and HEX expression: Wnt inhibition during foregut specification
Excerpt: RT-quantitative PCR was used to quantify gene expression. […] During liver development, populations of definitive endoderm cells are first patterned along the anterior-posterior axis to form either the foregut or mid/hindgut. In the present invention the effects of signaling inhibition on the developmental competence of the foregut cells to give rise to the liver bud (LB) cells was examined. Competence is defined as the capacity of one stem cell or progenitor cell to differentiate into its daughter cell type. For example, the posterior foregut is competent when it could give rise to its daughter cell types such as the pancreatic endoderm and LB cells.

hPSC-derived LB cells = test: Hepatic progenitor specification from hPSC-derived LB cells (days 7-12), liver gene expression
Description: (§1) mTeSR1-grown hPSCs were cultured and differentiated as follows: • a) hPSCs cells were seeded at 1:12 as small clumps using Accutase (Millipore, Cat#SCR005) and Geltrex (Lifetech, Cat#A1413302). • b) Anterior Primitive Streak (day 1) was specified using Activin A (100 ng/ml), CHIR99021 (3 μM), PI-103 (50 nM) and Fgf2 (10 ng/ml) in serumless CDM2 basal medium for 24 hr. • c) Activin A (100 ng/ml) and DM3189 (250 nM) and PI-103 (50 nM) were added in the same basal medium for 24 hr to induce Definitive Endoderm (DE) (day 2). • d) DE was then patterned into PFG by using A83-01 (1 μM), RA (2 μM), BMP4 (30 ng/ml) and Fgf2 (10 ng/ml) in CDM KOSR basal media for another 24 hrs. • e) PFG was further differentiated to LB progenitors using Activin A (100 ng/ml), 8-bromo-CAMP (1 mM) and BMP4 (10 ng/ml) in CDM KOSR basal media for 3 days (day 4 to 6). • f) LB progenitors were treated with BMP4 (10 ng/ml), Oncostatin M (10 ng/ml), Dexamethasone ([…]), DAPT, C59 (1 μM) or RO4919097 (2 μM), forskolin ([…]), human recombinant insulin (10 μg/ml), ascorbic acid-2 phosphate (200 μg/ml), L-gluthathione ([…]) and amino acid concentrate and in IMDM/F12 media for the next 6 days (day 7 to 12) to induce hepatic progenitors. • g) Hepatic progenitors were treated with Dexamethasone (10 μM), RO4929097 (2 μM) or DAPT (10 μM), Forskolin (10 μM), human recombinant insulin (10 μg/ml), ascorbic acid-2 phosphate (200 μg/ml) in IMDM/F12 media for 6 days (day 13 to 18) to generate hepatocyte-like cells. Intra-Splenic Transplantation into FRG^−/− Mice
(§2) RNA was extracted using Zymo RNA extraction kit. RT-quantitative PCR was used to quantify gene expression. Primer sequences were designed by NCBI Primer Tool and primer specificity and linearity was tested before usage for gene expression analyses.
To identify the signals that regulate the progression of the LB progenitors from an ALB- to a more differentiated ALB+ state, multiple signaling pathways were systematically screened for their effects on ALB expression (including FGF, WNT, Notch, HGF, cAMP/PKA, TGFβ, and BMP).

PFG cells = test: Liver bud (LB) specification from posterior foregut, days 4-6, gene expression; assay type: cell-based, human
Description: as §1, §2
The signaling pathways, including Retinoic, Nodal/Activin, Bmp, PKA, FGF and Wnt signaling, were explored to determine if they could directly regulate LB specification.

**Q.** Which results are given for “DKK1: Dickkopf 1, inhibitor of Wnt signaling”?
**A.** expression of ALB, CYP3A7 (hepatic progenitors): promotes; downstream LB gene expression (AFP, CEBPA, TBX3, HNF1B) (hPSC-derived DE): severely reduces; expression of MHG markers CDX2 and EVX1 (hPSC-derived DE): reduces; HNF6, PROX1 and HEX expression (hPSC-derived DE): upregulated

**Q.** Which results are given for “human recombinant insulin: activator of insulin signaling”?
**A.** tyrosine metabolic genes and xenobiotic metabolic genes such as CYP3A4 (hepatic progenitors): continues to enhance; expression of ALB, CPS1 and CYP3A4 (hPSC-derived LB cells): strongly enhanced; expression of PAH, HGD, HPD, TAT, MAI, and FAH (hPSC-derived LB cells; days 7 to 12): significantly increases

**Q.** How did the “expression of ALB, CYP3A7” value (hepatic progenitors) turn out when `Cc1cc(-c2ccc(CC(=O)Nc3ccc(-c4cccnc4)cc3)cc2)ccn1` [C59, 2-(4-(2-methylpyridin-4-yl)phenyl)-N-(4-(pyridin-3-yl)phenyl)acetamide] was run?
**A.** The value was “promotes”.

**Q.** And the “downstream LB gene expression (AFP, CEBPA, TBX3, HNF1B)” value (hPSC-derived DE)?
**A.** The value was “severely reduces”.

**Q.** What about the “expression of MHG markers CDX2 and EVX1” value (hPSC-derived DE) of the same compound?
**A.** Its value is “reduces”.

**Q.** And the “HNF6, PROX1 and HEX expression” value (hPSC-derived DE)?
**A.** The value was “upregulated”.

**Q.** With Activin: activator of TGFβ signaling as the compound, how does the periportal genes (hepatic progenitors) read?
**A.** Its periportal genes is “downregulation”.

**Q.** And the “later expression of ALB in subsequent differentiation” value (PFG cells; 10 ng/ml during LB specification)?
**A.** The value was “increases”.

**Q.** What about the “HNF4A, HNF1A, and TBX3 levels” value (PFG cells; day 4 to 6) of the same compound?
**A.** Its value is “increases”.

**Q.** And the “LB expression (AFP and CEBPA)” value (PFG cells; day 4 to 6)?
**A.** The value was “reduces”.

**Q.** What about the LB marker expression (PFG cells; increasing the dose) of the same compound?
**A.** Its LB marker expression is “seems to reduce”.

**Q.** And the “expression of ALB on day 13” value (PFG cells; treatment during LB specification (days 4-6))?
**A.** The value was “enhances”.

**Q.** Which results are given for `CC1=C(/C=C/C(C)=C\C=C\C(C)=C\C(=O)O)C(C)(C)CCC1` [9-Cis-RA, 3,7-Dimethyl-9-(2,6,6-trimethyl-1-cyclohexen-1-yl)nona-2E,4E,6Z,8E-tetraenoic acid]?
**A.** expression of CYP3A5, CYP3A7, CYP3A4, CYP2D1, CYP2E1, and CYP1A1 (hepatic progenitors): enhance; expression of periportal genes such as ARG1, OTC, ASL1 and CPS1 (hepatic progenitors): reduces
